# In patent US9139638B2, “Mouse model of cholinergic dysfunction to evaluate cognitive enhancers and drugs that improve myasthenia” (priority 2006, dated 2015):
# Test system: VAChT KD^HOM mice
# Experiment: Grip force test in VAChT KD^HOM mice
# Format: in vivo
# Conditions: pyridostigmine i.p. 1 mg/kg, 30 min prior to the test, FIG. 4B, p<0.05
# Procedure: To evaluate whether the alterations detected in neuromuscular transmission may affect neuromuscular function, we tested the performance of wild-type and mutant mice in motor tasks (FIG. 4). The wire-hang experiments were conducted as described (Sango et al. (1996) Mice lacking both subunits of lysosomal beta-hexosaminidase display gangliosidosis and mucopolysaccharidosis. Nat. Genet. 14:348-352) and time spent hanging upside down was determined with a cut-off time of 60 sec.
# To measure grip force, we used a custom built force transducer connected to a small support that could be grasped by the mouse as described (Fowler et al. (2002) Motor and associative deficits in D2 dopamine receptor knockout mice. Int. J. Dev. Neurosci. 20:309-321). Five tests were performed per mouse with a maximum period of 50 sec for each animal over two different days. The force transducer was coupled to a computer and a routine was developed to record the maximal grip-force exerted. By comparison, VAChT KD^HET mice present no deficit in neuromuscular function as assessed in this test. Importantly, reduced grip-strength in VAChT KD^HOM mice was improved by prior injection of one of three cholinesterase inhibitors: pyridostigmine (i.p. 1 mg/kg), galantamine (s.c. 1 mg/kg) or physostigmine (i.p., 0.3 mg/kg), (FIG. 4B, F(3,47)=8.323 p<0.05). […]
structure (smiles),measurement,value
CN(C)C(=O)Oc1ccc[n+](C)c1 [pyridostigmine],grip-strength (maximal grip-force),improved
